Source: ChEMBL document CHEMBL1201862, “PubChem BioAssay data set” (2004)
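Cultured in 96-well plates, cells were exposed to test compound for 48 hours across five concentrations. GI50 = concentration required for 50% inhibition of growth.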 Calls of active or inactive are those of the source. Cut-off read from the data, not from the text of the source: active = GI50 up to about 1.1 µM and inactive = higher.

Experiments:
Test in all cases: DTP human tumour cell line panel, 48 h
M19-MEL = tested on: M19-MEL
UACC-257 = tested on: UACC-257
A498 = tested on: A498
CAKI-1 = tested on: CAKI-1
RXF 631 = tested on: RXF 631
HL-60 = tested on: HL-60
HCT-15 = tested on: HCT-15
SNB-78 = tested on: SNB-78
M14 = tested on: M14
TK-10 = tested on: TK-10
NCI-H226 = tested on: NCI-H226
MOLT-4 = tested on: MOLT-4
DLD-1 = tested on: DLD-1
SF-268 = tested on: SF-268
RPMI-8226 = tested on: RPMI-8226
SK-OV-3 = tested on: SK-OV-3
NCI-H460 = tested on: NCI-H460
SF-539 = tested on: SF-539
COLO 205 = tested on: COLO 205
SR = tested on: SR
A549 = tested on: A549
SK-MEL-28 = tested on: SK-MEL-28
786-0 = tested on: 786-0
K562 = tested on: K562
SN12C = tested on: SN12C
HOP-92 = tested on: HOP-92
UACC-62 = tested on: UACC-62
OVCAR-8 = tested on: OVCAR-8
DMS-114 = tested on: DMS-114
HOP-62 = tested on: HOP-62
SW-620 = tested on: SW-620
SK-MEL-5 = tested on: SK-MEL-5
SF-295 = tested on: SF-295
Malme-3M = tested on: Malme-3M
NCI-H23 = tested on: NCI-H23
CCRF-CEM = tested on: CCRF-CEM
HOP-18 = tested on: HOP-18
NCI-H522 = tested on: NCI-H522
OVCAR-3 = tested on: OVCAR-3
LXFL 529 = tested on: LXFL 529
KM-20L2 = tested on: KM-20L2
LOX IMVI = tested on: LOX IMVI
IGROV-1 = tested on: IGROV-1
OVCAR-4 = tested on: OVCAR-4
HCT-116 = tested on: HCT-116
UO-31 = tested on: UO-31
SNB-19 = tested on: SNB-19
SNB-75 = tested on: SNB-75
U-251 = tested on: U-251
HT-29 = tested on: HT-29
ACHN = tested on: ACHN
SK-MEL-2 = tested on: SK-MEL-2
EKVX = tested on: EKVX
OVCAR-5 = tested on: OVCAR-5
DMS-273 = tested on: DMS-273
KM12 = tested on: KM12
HCC 2998 = tested on: HCC 2998
RXF 393 = tested on: RXF 393
NCI/ADR-RES = tested on: NCI/ADR-RES
XF498 = tested on: XF498
MCF7 = tested on: MCF7

## O=C(Nc1c(O)[nH]c(=S)[nH]c1=O)c1ccc2ccccc2n1
M19-MEL
  GI50: > 100 µM (inactive)
UACC-257
  GI50: > 100 µM (inactive)
A498
  GI50: > 100 µM (inactive)
CAKI-1
  GI50: > 100 µM (inactive)
RXF 631
  GI50: > 100 µM (inactive)
HL-60
  GI50: > 100 µM (inactive)
HCT-15
  GI50: > 100 µM
SNB-78
  GI50: > 100 µM (inactive)
M14
  GI50: > 100 µM (inactive)
TK-10
  GI50: > 100 µM (inactive)
NCI-H226
  GI50: > 100 µM (inactive)
MOLT-4
  GI50: > 100 µM (inactive)
DLD-1
  GI50: > 100 µM (inactive)
SF-268
  GI50: > 100 µM (inactive)
RPMI-8226
  GI50: > 100 µM (inactive)
SK-OV-3
  GI50: > 100 µM (inactive)
NCI-H460
  GI50: > 100 µM (inactive)
SF-539
  GI50: > 100 µM (inactive)
COLO 205
  GI50: > 100 µM (inactive)
SR
  GI50: > 100 µM (inactive)
A549
  GI50: > 100 µM (inactive)
SK-MEL-28
  GI50: > 100 µM (inactive)
786-0
  GI50: > 100 µM (inactive)
K562
  GI50: > 100 µM (inactive)
SN12C
  GI50: > 100 µM (inactive)
HOP-92
  GI50: > 100 µM (inactive)
UACC-62
  GI50: > 100 µM (inactive)
OVCAR-8
  GI50: > 100 µM (inactive)
DMS-114
  GI50: > 100 µM (inactive)
HOP-62
  GI50: > 100 µM (inactive)
SW-620
  GI50: > 100 µM (inactive)
SK-MEL-5
  GI50: > 100 µM (inactive)
SF-295
  GI50: > 100 µM (inactive)
Malme-3M
  GI50: > 100 µM (inactive)
NCI-H23
  GI50: > 100 µM (inactive)
CCRF-CEM
  GI50: > 100 µM (inactive)
HOP-18
  GI50: > 100 µM (inactive)
NCI-H522
  GI50: > 100 µM (inactive)
OVCAR-3
  GI50: > 100 µM (inactive)
LXFL 529
  GI50: > 100 µM (inactive)
KM-20L2
  GI50: > 100 µM (inactive)
LOX IMVI
  GI50: > 100 µM (inactive)
IGROV-1
  GI50: > 100 µM (inactive)
OVCAR-4
  GI50: > 100 µM (inactive)
HCT-116
  GI50: > 100 µM (inactive)
UO-31
  GI50: > 100 µM (inactive)
SNB-19
  GI50: > 100 µM (inactive)
SNB-75
  GI50: > 100 µM (inactive)
U-251
  GI50: > 100 µM (inactive)
HT-29
  GI50: > 100 µM (inactive)
ACHN
  GI50: > 100 µM (inactive)

## COC(=O)C1Cc2c(n(Cc3ccccc3)c3ccccc23)C(CCC(=O)O)N1C(C)C (stereo not given)
M19-MEL
  GI50: > 100 µM (inactive)
UACC-257
  GI50: > 100 µM (inactive)
A498
  GI50: > 100 µM (inactive)
CAKI-1
  GI50: > 100 µM (inactive)
RXF 631
  GI50: > 100 µM (inactive)
HL-60
  GI50: > 100 µM (inactive)
SK-MEL-2
  GI50: > 100 µM (inactive)
HCT-15
  GI50: > 100 µM
SNB-78
  GI50: > 100 µM (inactive)
M14
  GI50: > 100 µM (inactive)
TK-10
  GI50: > 100 µM (inactive)
NCI-H226
  GI50: > 100 µM (inactive)
MOLT-4
  GI50: > 100 µM (inactive)
DLD-1
  GI50: > 100 µM (inactive)
SF-268
  GI50: > 100 µM (inactive)
SK-OV-3
  GI50: > 100 µM (inactive)
NCI-H460
  GI50: > 100 µM (inactive)
EKVX
  GI50: > 100 µM (inactive)
OVCAR-5
  GI50: > 100 µM (inactive)
SF-539
  GI50: > 100 µM (inactive)
COLO 205
  GI50: > 100 µM (inactive)
DMS-273
  GI50: > 100 µM (inactive)
SR
  GI50: > 100 µM (inactive)
A549
  GI50: > 100 µM (inactive)
SK-MEL-28
  GI50: > 100 µM (inactive)
786-0
  GI50: > 100 µM (inactive)
K562
  GI50: > 100 µM (inactive)
SN12C
  GI50: > 100 µM (inactive)
HOP-92
  GI50: > 100 µM (inactive)
UACC-62
  GI50: > 100 µM (inactive)
OVCAR-8
  GI50: > 100 µM (inactive)
DMS-114
  GI50: > 100 µM (inactive)
SW-620
  GI50: > 100 µM (inactive)
SK-MEL-5
  GI50: > 100 µM (inactive)
SF-295
  GI50: > 100 µM (inactive)
Malme-3M
  GI50: > 100 µM (inactive)
KM12
  GI50: > 100 µM (inactive)
NCI-H23
  GI50: > 100 µM (inactive)
CCRF-CEM
  GI50: > 100 µM (inactive)
HOP-18
  GI50: > 100 µM (inactive)
NCI-H522
  GI50: > 100 µM (inactive)
OVCAR-3
  GI50: > 100 µM (inactive)
LXFL 529
  GI50: > 100 µM (inactive)
KM-20L2
  GI50: > 100 µM (inactive)
HCC 2998
  GI50: > 100 µM (inactive)
LOX IMVI
  GI50: > 100 µM (inactive)
IGROV-1
  GI50: > 100 µM (inactive)
OVCAR-4
  GI50: > 100 µM (inactive)
HCT-116
  GI50: > 100 µM (inactive)
UO-31
  GI50: > 100 µM (inactive)
SNB-19
  GI50: > 100 µM (inactive)
SNB-75
  GI50: > 100 µM (inactive)
U-251
  GI50: > 100 µM (inactive)
HT-29
  GI50: > 100 µM (inactive)
ACHN
  GI50: > 100 µM (inactive)

## Cc1ccc2[nH]c3c(C)c4ccncc4c(C)c3c2c1
M19-MEL
  GI50: 1.36 µM (inactive)
UACC-257
  GI50: 1.41 µM (inactive)
A498
  GI50: 1.5 µM (inactive)
CAKI-1
  GI50: 0.906 µM (active)
HL-60
  GI50: 1.22 µM (inactive)
SK-MEL-2
  GI50: 1.59 µM (inactive)
HCT-15
  GI50: 0.63 µM
SNB-78
  GI50: 1.73 µM (inactive)
M14
  GI50: 1.67 µM (inactive)
TK-10
  GI50: 3.81 µM (inactive)
NCI-H226
  GI50: 1.72 µM (inactive)
RXF 393
  GI50: 0.226 µM (active)
MOLT-4
  GI50: 0.231 µM (active)
DLD-1
  GI50: 0.333 µM (active)
SF-268
  GI50: 0.733 µM (active)
RPMI-8226
  GI50: 1.09 µM (active)
SK-OV-3
  GI50: 2.23 µM (inactive)
NCI-H460
  GI50: 0.456 µM (active)
NCI/ADR-RES
  GI50: 0.513 µM (active)
EKVX
  GI50: 1.47 µM (inactive)
OVCAR-5
  GI50: 1.37 µM (inactive)
SF-539
  GI50: 1.33 µM (inactive)
COLO 205
  GI50: 0.873 µM (active)
DMS-273
  GI50: 0.155 µM (active)
SR
  GI50: 0.528 µM (active)
A549
  GI50: 0.966 µM (active)
XF498
  GI50: 1.6 µM (inactive)
SK-MEL-28
  GI50: 1.55 µM (inactive)
K562
  GI50: 0.519 µM (active)
SN12C
  GI50: 0.449 µM (active)
MCF7
  GI50: 0.908 µM (active)
HOP-92
  GI50: 0.553 µM (active)
UACC-62
  GI50: 1.62 µM (inactive)
OVCAR-8
  GI50: 0.328 µM (active)
DMS-114
  GI50: 0.369 µM (active)
HOP-62
  GI50: 1.19 µM (inactive)
SW-620
  GI50: 0.384 µM (active)
SK-MEL-5
  GI50: 1.6 µM (inactive)
SF-295
  GI50: 1.08 µM (active)
Malme-3M
  GI50: 1.9 µM (inactive)
KM12
  GI50: 0.614 µM (active)
NCI-H23
  GI50: 1.24 µM (inactive)
CCRF-CEM
  GI50: 0.242 µM (active)
HOP-18
  GI50: 0.252 µM (active)
NCI-H522
  GI50: 0.929 µM (active)
OVCAR-3
  GI50: 1.12 µM (active)
LXFL 529
  GI50: 1.15 µM (inactive)
KM-20L2
  GI50: 0.815 µM (active)
HCC 2998
  GI50: 1.48 µM (inactive)
LOX IMVI
  GI50: 0.871 µM (active)
IGROV-1
  GI50: 0.944 µM (active)
OVCAR-4
  GI50: 1.08 µM (active)
HCT-116
  GI50: 0.322 µM (active)
UO-31
  GI50: 1.58 µM (inactive)
SNB-19
  GI50: 1.24 µM (inactive)
SNB-75
  GI50: 1.65 µM (inactive)
U-251
  GI50: 1.16 µM (inactive)
HT-29
  GI50: 1.06 µM (active)
ACHN
  GI50: 1.09 µM (active)
